The source made the active and inactive calls. The calls are words filed in the database; no cut-off is given here. Where a SMILES comes first, the peptide text is derived from it. Side-chain parts run from the residue outwards. Some results are limits rather than exact numbers.

Usually MIC stands for the lowest concentration that inhibits growth of the organism. The CC50 is the concentration giving 50% cytotoxicity.

Data set [1] has as its system Staphylococcus aureus. As to the kind of experiment: Synergistic antibacterial activity against rifampicin resistant Staphylococcus aureus ATCC 25923 assessed as fractional inhibitory concentration index at 0.25 to 4 times MIC incubated for 20 hrs in presence of rifampicin by checkerboard assay. It counts as functional.
The test system of data set [2] is Staphylococcus aureus. As to the kind of experiment: Antibacterial activity against Staphylococcus aureus ATCC 25923 assessed as inhibition of bacterial growth incubated for 20 hrs in presence of KCl by broth microdilution method (reference value: 16 microM). The format is functional. Background: In broth dilution the organism is exposed to a series of concentrations in liquid medium.

Data set [3] has as its system Staphylococcus aureus. Nature of the data set: Antibacterial activity against Staphylococcus aureus ATCC 25923 assessed as inhibition of bacterial growth incubated for 20 hrs in presence of FeCl3 by broth microdilution method (reference value: 16 microM). The format is functional.
Data set [4] concerns Staphylococcus aureus. Nature of the data set: Antibacterial activity against Staphylococcus aureus ATCC 25923 assessed as inhibition of bacterial growth incubated for 20 hrs in presence of NaCl by broth microdilution method (reference value: 16 microM). The format is functional.
The subject of data set [5] is Staphylococcus aureus. Nature of the data set: Antibacterial activity against Staphylococcus aureus ATCC 25923 assessed as inhibition of bacterial growth incubated for 20 hrs in presence of MgCl2 by broth microdilution method (reference value: 16 microM). The format is functional.
The subject of data set [6] is Escherichia coli. As to the kind of experiment: Synergistic antibacterial activity against Escherichia coli ATCC 25922 assessed as fractional inhibitory concentration index at 0.25 to 4 times MIC incubated for 20 hrs in presence of kanamycin by checkerboard assay. The format is functional.
For data set [7], the system named is Staphylococcus aureus. As to the kind of experiment: Antibacterial activity against Staphylococcus aureus ATCC 25923 assessed as inhibition of bacterial growth incubated for 20 hrs in presence of ZnCl2 by broth microdilution method (reference value: 16 microM). The format is functional.
Data set [8] concerns Cell membrane. Nature of the data set: Induction of cell membrane damage in Escherichia coli assessed as PI uptake at 2 times MIC measured after 0.5 hrs by PI dye based flow cytometry analysis (reference value: 18.1%). The format is cell membranes. (In general: A flow cytometer gives signals particle by particle.)
A short description of data set [9]: Acute toxicity in male BALB/c mouse assessed as torpid movement at 80 to 130 mg/kg, ip administered as single dose and measured after 3 days. The format is organism-based. Particulars: in vivo, 72 h, dose 80-130 mg/kg, time 3 day.
The subject of data set [10] is Cell membrane. Nature of the data set: Induction of cytoplasmic membrane depolarization in Staphylococcus aureus assessed as increase in fluorescence intensity at >1 times MIC measured within 1 min by DISC3-5 dye based fluorescence analysis.
Data set [11] deals with Escherichia coli. As to the kind of experiment: Resistant development in Escherichia coli assessed as increase in MIC at sub-MIC in presence of gentamicin measured after 20 passages. The format is functional, organism-based.
For data set [12], the system named is Cell membrane. As to the kind of experiment: Disruption of cell membrane morphology in Escherichia coli assessed as release of cellular contents at 2 times MIC measured after 0.5 to 2 hrs by SEM analysis. Particulars: time 0.5-2 hrs. It counts as cell membranes.
The subject of data set [13] is Escherichia coli. Nature of the data set: Additive antibacterial activity against Escherichia coli ATCC 25922 assessed as fractional inhibitory concentration index at 0.25 to 4 times MIC incubated for 20 hrs in presence of vancomycin by checkerboard assay. It counts as functional.
For data set [14], the system named is Cell membrane. Nature of the data set: Induction of cell membrane damage in Staphylococcus aureus assessed as PI uptake at 2 times MIC measured after 0.5 hrs by PI dye based flow cytometry analysis (reference value: 24.2%). The format is cell membranes.
The nature of data set [15]: Therapeutic index, ratio of MHC10 for hemolytic activity in mouse erythrocytes preincubated with 10% mouse serum for 1 hr to MIC for Staphylococcus aureus ATCC 25923 preincubated with 10% mouse serum for 1 hr. It counts as toxicity, cell-based. Particulars: mouse erythrocytes, read-out: TI.
Data set [16] relates to Escherichia coli. Nature of the data set: Bactericidal activity against Escherichia coli ATCC 25922 assessed as elimination of bacteria at 2 times MIC measured within 2 hrs by time kill assay. It counts as functional, organism-based.
Data set [17] relates to Cell membrane. As to the kind of experiment: Disruption of cell membrane morphology in Staphylococcus aureus assessed as breakage of cell membrane at 2 times MIC measured after 0.5 to 2 hrs by SEM analysis. The format is cell membranes. Particulars: time 0.5-2 hrs.
In data set [18] the test system is Cell membrane. Nature of the data set: Induction of cell membrane damage in Escherichia coli assessed as increase in PI uptake at 2 times MIC measured after 2 hrs by PI dye based flow cytometry analysis. The format is cell membranes.
For data set [19], the system named is Cell membrane. As to the kind of experiment: Disruption of cell membrane morphology in Escherichia coli assessed as partial creasing in bacterial membrane at 2 times MIC measured after 0.5 to 2 hrs by SEM analysis. The format is cell membranes. Particulars: time 0.5-2 hrs.
The test system of data set [20] is Staphylococcus aureus. Nature of the data set: Drug resistance, ratio of MIC for Staphylococcus aureus after 20 passages to MIC for Staphylococcus aureus after initial exposure. It counts as functional.
Data set [21] can be described thus: Hemolytic activity in mouse erythrocytes at 256 uM preincubated for 1 to 6 hr with 10% mouse serum and measured after 1 hr by absorbance based analysis. It counts as toxicity, cell-based, Erythrocyte. Particulars: time 1-7 hrs, read-out: Activity.
Data set [22] in a line: Therapeutic index, ratio of MHC10 for hemolytic activity in mouse erythrocytes preincubated with 10% mouse serum for 6 hrs to MIC for Escherichia coli ATCC 25922 preincubated with 10% mouse serum for 6 hrs. It counts as toxicity, cell-based. To be noted: mouse erythrocytes, read-out: TI.
In data set [23] the test system is Cell membrane. Nature of the data set: Disruption of cell membrane morphology in Escherichia coli assessed as loss of intact cell morphology at 2 times MIC measured after 0.5 to 2 hrs by SEM analysis. The format is cell membranes. Particulars: time 0.5-2 hrs.
Data set [24] can be described thus: Cytotoxicity against HEK293T cells assessed as cell death measured after 1 hr by resazurin dye based analysis. It counts as toxicity, HEK-293T. To be noted: human, HEK293T cells. In general terms: Alamar Blue is a resazurin reagent that responds to reducing activity.
In data set [25] the test system is Cell membrane. Nature of the data set: Disruption of cell membrane morphology in Escherichia coli assessed as breakage of cell membrane at 2 times MIC measured after 0.5 to 2 hrs by SEM analysis. The format is cell membranes. To be noted: time 0.5-2 hrs.
Data set [26] relates to Staphylococcus aureus. As to the kind of experiment: Bactericidal activity against Staphylococcus aureus ATCC 25923 assessed as elimination of bacteria at 2 times MIC measured after 1.5 hrs by time kill assay. It counts as functional.
A short description of data set [27]: Therapeutic index, ratio of MHC10 for hemolytic activity in mouse erythrocytes preincubated with 10% mouse serum for 1 hr to MIC for Escherichia coli ATCC 25922 preincubated with 10% mouse serum for 1 hr. The format is toxicity, cell-based. To be noted: mouse erythrocytes, read-out: TI.
Data set [28] deals with Escherichia coli. Nature of the data set: Synergistic antibacterial activity against Escherichia coli ATCC 25922 assessed as fractional inhibitory concentration index at 0.25 to 4 times MIC incubated for 20 hrs in presence of polymyxin B by checkerboard assay. The format is functional.
Data set [29] can be described thus: Acute toxicity in male BALB/c mouse assessed as loss of appetite at 80 to 130 mg/kg, ip administered as single dose and measured after 3 days. The format is organism-based. To be noted: in vivo, 72 h, dose 80-130 mg/kg, time 3 day.
The subject of data set [30] is Escherichia coli. As to the kind of experiment: Resistant development in Escherichia coli assessed as increase in MIC at sub-MIC in presence of rifampicin measured after 20 passages. The format is functional, organism-based.
The test system of data set [31] is Staphylococcus aureus. As to the kind of experiment: Resistant development in Staphylococcus aureus assessed as increase in MIC at sub-MIC in presence of gentamicin measured after 20 passages. It counts as functional, organism-based.
Data set [32] is described as follows: Acute toxicity in male BALB/c mouse assessed as lusterless fur at 80 to 130 mg/kg, ip administered as single dose and measured after 3 days. The format is organism-based. To be noted: in vivo, 72 h, dose 80-130 mg/kg, time 3 day.
The subject of a further data set is Lipopolysaccharide (LPS). Nature of the data set: Binding affinity to LPS (unknown origin) assessed as reduction in bacterial mortality at 2 times MIC preincubated with LPS for 1 hr followed by bacteria addition and measured after 18 hrs by microplate reader analysis. It counts as subcellular. To be noted: time 19.0 hrs.
For data set [33], the system named is Cell membrane. As to the kind of experiment: Induction of cell membrane damage in Staphylococcus aureus assessed as increase in PI uptake at 2 times MIC measured after 2 hrs by PI dye based flow cytometry analysis. The format is cell membranes.
The next data set has as its system Erythrocyte. Nature of the data set: Hemolytic activity in mouse erythrocytes assessed as 10% hemolysis incubated for 1 hr by absorbance based analysis. The format is toxicity, cell-based.
The test system of data set [34] is Staphylococcus aureus. As to the kind of experiment: Antibiofilm activity against Staphylococcus aureus ATCC 25923 assessed as inhibition of biofilm formation at 0.5 to 4 times MIC measured after 24 hrs by crystal violet staining based analysis. It counts as functional, organism-based.

As to POLYMYXIN B, the fractional inhibitory concentration index (FICI) in the data set on Staphylococcus aureus [1] and with Escherichia coli [6] was 0.5 throughout. Besides, the MIC is 16 µM in the data set with Staphylococcus aureus [2]; 16 µM in the data set with Staphylococcus aureus [3]; 64 µM in the data set on Staphylococcus aureus [4]; 16 µM in the data set on Staphylococcus aureus [5]; 16 µM in the data set with Staphylococcus aureus [7].
As for `N=C(N)NCCC[C@H](NC(=O)[C@@H](N)CCCNC(=N)N)C(=O)NCCCC[C@H](NC(=O)[C@H](CCCNC(=N)N)NC(=O)[C@@H](N)CCCNC(=N)N)C(=O)N[C@@H](Cc1c[nH]c2ccccc12)C(=O)N[C@@H](Cc1c[nH]c2ccccc12)C(=O)N[C@@H](Cc1c[nH]c2ccccc12)C(=O)N[C@@H](Cc1c[nH]c2ccccc12)C(N)=O` (H-RRK([Arg-Arg])WWWW-NH2), the Activity with Cell membrane [8] was more than 80%; in data set [9], “Toxic”; with Cell membrane [14], more than 90%; with Staphylococcus aureus [26] it was 100%; in data set [29], “Toxic”; in [32] it was “Toxic”. Also, the Activity entry in the data set on Staphylococcus aureus [34] was “Dose-Dependent Effect”. Also, the result in the data set on Cell membrane [10], with Cell membrane [12], in the data set on Escherichia coli [16], in the data set on Cell membrane [17], in the data set with Cell membrane [19] and in the data set on Cell membrane [23] was Active. Besides, the outcome with Cell membrane [25] and in the data set on Lipopolysaccharide (LPS) was Active. Also, the result in the data set with Escherichia coli [11], in the data set on Cell membrane [18], in the data set on Escherichia coli [30], with Staphylococcus aureus [31] and in the data set on Cell membrane [33] was inactive. The results for the “fractional inhibitory concentration index (FICI)” value in the data set with Escherichia coli [13] and with Escherichia coli [28] were 0.563 and 0.5, respectively. Further, the selectivity ratio in data set [15] is 1; in [22] it was 0.5; in data set [27], 1. The MIC came out at 8 µM in the data set with Staphylococcus aureus [2]; 8 µM in the data set with Staphylococcus aureus [3]; 16 µM in the data set on Staphylococcus aureus [4]; 8 µM with Staphylococcus aureus [5]; 16 µM in the data set on Staphylococcus aureus [7]. For the same molecule, the Ratio result with Staphylococcus aureus [20] is given as “<=2”. Moreover, the hemolysis at 1 h, 256 µM in data set [21] was less than 10%. For the same molecule, in [24], the cytotoxic concentration (CC50) at 1 h is more than 128 µM. For the same molecule, the MHC10 with Erythrocyte was more than 256 µM.
As to `N=C(N)NCCC[C@H](NC(=O)[C@H](CCCNC(=N)N)NC(=O)[C@H](CCCNC(=N)N)NC(=O)[C@@H](N)CCCNC(=N)N)C(=O)N[C@@H](CCCCN)C(=O)N[C@@H](Cc1c[nH]c2ccccc12)C(=O)N[C@@H](Cc1c[nH]c2ccccc12)C(=O)N[C@@H](Cc1c[nH]c2ccccc12)C(=O)N[C@@H](Cc1c[nH]c2ccccc12)C(N)=O`, the Activity was more than 80% in the data set on Cell membrane [8]; “Toxic” in data set [9]; more than 90% in the data set with Cell membrane [14]; 100% with Staphylococcus aureus [26]; “Toxic” in data set [29]; “Toxic” in data set [32]. Also, the Activity result in the data set with Staphylococcus aureus [34] is “Dose-Dependent Effect”. Further, the “fractional inhibitory concentration index (FICI)” value in the data set on Staphylococcus aureus [1] was determined as 0.5; with Escherichia coli [13], 0.625; in the data set with Escherichia coli [28] it was 0.5; with Escherichia coli [6], 0.5. Moreover, the outcome with Cell membrane [10], in the data set with Cell membrane [12], in the data set on Escherichia coli [16], with Cell membrane [17], in the data set on Cell membrane [19] and in the data set on Cell membrane [23] was Active. Further, the outcome in the data set with Cell membrane [25] and in the data set on Lipopolysaccharide (LPS) was Active. Moreover, the result with Escherichia coli [11], in the data set on Cell membrane [18], in the data set on Escherichia coli [30], in the data set with Staphylococcus aureus [31] and with Cell membrane [33] was inactive. Moreover, the values for the selectivity ratio in [15], in data set [22] and in [27] were 0.5, 0.25 and 0.5, respectively. Further, the Ratio result with Staphylococcus aureus [20] is “<=2”. Further, in [21], the hemolysis at 1 h, 256 µM is less than 10%. For the same molecule, the CC50 at 1 h in [24] is more than 128 µM. Also, the MHC10 with Erythrocyte was more than 256 µM.

(Values after ChEMBL document CHEMBL5500371, “Arginine and tryptophan-rich dendritic antimicrobial peptides that disrupt membranes for bacterial infection in vivo” (Eur J Med Chem, 2024).)
